US10172864B2, “Therapeutically active compounds and their methods of use” (AGIOS PHARMACEUTICALS, INC, priority 2013, dated 2019)

Biological target: IDH1 wt/IDH1 R132H heterodimer (Homo sapiens (Human), UniProt O75874, R132H)
Test: IDH1 wt/IDH1 R132H heterodimer enzymatic assay, NADPH depletion with diaphorase/resazurin readout
Assay type: biochemical
Settings: 300 μM NADP (saturated)
Experimental: The following describes the experimental procedures that can be used to obtain data on columns 2 and 4 of Table 4 and column 2 of Table 5.
In the primary reaction, the reduction of α-KG acid to 2-HG is accompanied by a concomitant oxidation of NADPH to NADP. The amount of NADPH remaining at the end of the reaction time is measured in a secondary diaphorase/resazurin reaction in which the NADPH is consumed in a 1:1 molar ratio with the conversion of resazurin to the highly fluorescent resorufin.
The mixture of compound, enzyme, and cofactor is pre-incubated at room temperature for 1 hr prior to the addition of alpha-ketoglutarate. To perform the secondary reaction, 10 uL of 1× buffer containing 36 μg/ml diaphorase and […] resazurin is added to the primary reaction and incubated for a further 5 minutes at 25° C. […] Compounds or compound dilutions are prepared in 100% DMSO concentration and diluted 1:50 into the final reaction. […] IC50s are determined.
IDH1 or IDH2 wildtype (wt) and mutant heterodimers are expressed and purified by methods known in the art. […] Host cell contaminants are removed by washing the column with equilibration buffer followed by equilibration buffer containing 20 mM imidazole and 60 mM imidazole to baseline. […]

IDH1 wt/IDH1 R132H heterodimer, sequence (O75874 whole entry R132H): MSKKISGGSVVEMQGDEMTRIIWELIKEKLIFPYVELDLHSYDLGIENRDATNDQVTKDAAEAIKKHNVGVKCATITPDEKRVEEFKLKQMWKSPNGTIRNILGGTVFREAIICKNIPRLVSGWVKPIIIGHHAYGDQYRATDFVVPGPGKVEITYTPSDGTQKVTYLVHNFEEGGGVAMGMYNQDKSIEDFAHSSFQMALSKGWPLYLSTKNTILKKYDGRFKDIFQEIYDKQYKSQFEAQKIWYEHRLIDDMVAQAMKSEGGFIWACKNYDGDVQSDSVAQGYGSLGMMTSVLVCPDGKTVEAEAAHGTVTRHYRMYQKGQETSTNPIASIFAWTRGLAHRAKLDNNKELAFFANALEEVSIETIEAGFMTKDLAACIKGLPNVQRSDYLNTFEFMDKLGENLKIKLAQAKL
IDH1 wt/IDH1 R132H heterodimer, sequence (O75874 whole entry, stated change not applied): as the sequence (O75874 whole entry R132H) above, with H132R counted along it

## FC1(F)CCC(Nc2nc(NC3CCC(F)(F)CC3)nc(-c3nc(C(F)(F)F)cs3)n2)CC1 [Compound 357]
  IC50: 50 to 100 nM
